Data published in ChEMBL document CHEMBL4364346, “Structure optimization of a new class of PPARγ antagonists” (Bioorg Med Chem, 2019).
Activity calls are given as the source filed them. The calls are words filed in the database; no cut-off is given here.

Key:
[1] = molecular target: T1, Vitamin D3 receptor (Homo sapiens) (UniProt P11473); assay: Agonist activity at recombinant human pFA-CMV fused VDR LBD transfected in HEK293T cells assessed as VDR activation at 1 uM incubated for 12 to 14 hrs by dual glo luciferase reporter gene assay; type: cell-based
T1 sequence (whole entry): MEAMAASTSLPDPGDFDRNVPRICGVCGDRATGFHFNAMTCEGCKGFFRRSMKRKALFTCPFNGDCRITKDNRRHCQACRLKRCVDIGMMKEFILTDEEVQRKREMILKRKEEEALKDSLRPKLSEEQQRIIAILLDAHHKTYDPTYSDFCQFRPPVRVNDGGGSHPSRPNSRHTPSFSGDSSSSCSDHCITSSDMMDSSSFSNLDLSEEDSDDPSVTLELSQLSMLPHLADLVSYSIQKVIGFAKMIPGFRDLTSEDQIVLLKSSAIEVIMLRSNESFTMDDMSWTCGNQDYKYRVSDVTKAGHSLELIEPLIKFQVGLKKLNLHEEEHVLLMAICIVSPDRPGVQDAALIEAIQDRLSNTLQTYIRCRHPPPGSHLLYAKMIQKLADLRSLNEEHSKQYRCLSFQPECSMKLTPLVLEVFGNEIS

[2] = molecular target: T2, Retinoic acid receptor alpha (Homo sapiens) (UniProt P10276); assay: Agonist activity at recombinant human pFA-CMV fused RARalpha LBD transfected in HEK293T cells assessed as RARalpha activation at 1 uM incubated for 12 to 14 hrs by dual glo luciferase reporter gene assay; type: cell-based
T2 sequence (whole entry): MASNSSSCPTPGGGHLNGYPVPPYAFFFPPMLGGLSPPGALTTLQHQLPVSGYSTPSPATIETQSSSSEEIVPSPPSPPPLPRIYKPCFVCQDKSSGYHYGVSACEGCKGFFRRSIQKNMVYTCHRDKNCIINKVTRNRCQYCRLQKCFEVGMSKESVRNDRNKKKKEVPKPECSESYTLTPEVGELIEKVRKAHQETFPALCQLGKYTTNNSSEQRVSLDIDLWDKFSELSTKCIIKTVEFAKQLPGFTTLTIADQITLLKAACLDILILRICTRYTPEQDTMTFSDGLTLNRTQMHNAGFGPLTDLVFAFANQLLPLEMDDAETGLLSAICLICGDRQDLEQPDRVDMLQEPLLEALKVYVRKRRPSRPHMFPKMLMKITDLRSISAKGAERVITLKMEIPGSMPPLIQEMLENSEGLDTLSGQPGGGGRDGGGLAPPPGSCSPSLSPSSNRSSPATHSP

[3] = AUC (0 to 4 hrs) in Swiss CD1 mouse at 10 mg/kg, ip measured upto 4 hrs by LC-MS analysis; type: ADME, organism-based; design: time < 4 hr, dose 10 mg/kg, route intraperitoneal; conditions: in vivo
[4] = molecular target: Oxysterols receptor LXR-alpha (Homo sapiens) (UniProt Q13133); assay: Antagonist activity at recombinant human pFA-CMV fused LXRalpha LBD transfected in HEK293T cells assessed as reduction in T0901317-induced LXRalpha activation at 1 uM incubated for 12 to 14 hrs by dual glo luciferase reporter gene assay
Oxysterols receptor LXR-alpha (Homo sapiens), sequence (Q13133 whole entry, looked up, the tested form may be a part): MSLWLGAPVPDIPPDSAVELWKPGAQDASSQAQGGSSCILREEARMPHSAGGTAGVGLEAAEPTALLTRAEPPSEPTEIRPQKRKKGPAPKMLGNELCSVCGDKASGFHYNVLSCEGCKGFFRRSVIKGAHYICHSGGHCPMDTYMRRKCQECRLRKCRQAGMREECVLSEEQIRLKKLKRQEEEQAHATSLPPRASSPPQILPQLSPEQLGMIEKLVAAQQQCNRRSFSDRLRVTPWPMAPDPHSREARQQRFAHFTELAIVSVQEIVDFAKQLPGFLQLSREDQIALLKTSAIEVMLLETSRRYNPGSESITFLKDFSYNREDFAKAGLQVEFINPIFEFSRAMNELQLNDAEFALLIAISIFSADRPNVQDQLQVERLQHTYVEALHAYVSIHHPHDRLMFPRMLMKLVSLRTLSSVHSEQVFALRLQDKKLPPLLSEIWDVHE

[5] = Tmax in Swiss CD1 mouse at 1 mg/kg, ip measured upto 7 hrs by LC-MS analysis; type: ADME, organism-based; conditions: in vivo
[6] = molecular target: Oxysterols receptor LXR-alpha (Homo sapiens) (UniProt Q13133); assay: Agonist activity at recombinant human pFA-CMV fused LXRalpha LBD transfected in HEK293T cells assessed as LXRalpha activation at 1 uM incubated for 12 to 14 hrs by dual glo luciferase reporter gene assay
[7] = Plasma concentration in Swiss CD1 mouse at 10 mg/kg, ip measured upto 4 hrs by LC-MS analysis; type: ADME, organism-based
[8] = molecular target: T3, Peroxisome proliferator-activated receptor gamma (Homo sapiens, UniProt P37231); assay: Antagonist actvity in sGFP-tagged PPARgamma LBD (unknown origin) assessed as inhibition of rosiglitazone-induced PPARgamma activation incubated for 1 hr in presence of CBP-1 cofactor peptide by HTRF based cofactor recruitment assay
T3 sequence (P37231 whole entry): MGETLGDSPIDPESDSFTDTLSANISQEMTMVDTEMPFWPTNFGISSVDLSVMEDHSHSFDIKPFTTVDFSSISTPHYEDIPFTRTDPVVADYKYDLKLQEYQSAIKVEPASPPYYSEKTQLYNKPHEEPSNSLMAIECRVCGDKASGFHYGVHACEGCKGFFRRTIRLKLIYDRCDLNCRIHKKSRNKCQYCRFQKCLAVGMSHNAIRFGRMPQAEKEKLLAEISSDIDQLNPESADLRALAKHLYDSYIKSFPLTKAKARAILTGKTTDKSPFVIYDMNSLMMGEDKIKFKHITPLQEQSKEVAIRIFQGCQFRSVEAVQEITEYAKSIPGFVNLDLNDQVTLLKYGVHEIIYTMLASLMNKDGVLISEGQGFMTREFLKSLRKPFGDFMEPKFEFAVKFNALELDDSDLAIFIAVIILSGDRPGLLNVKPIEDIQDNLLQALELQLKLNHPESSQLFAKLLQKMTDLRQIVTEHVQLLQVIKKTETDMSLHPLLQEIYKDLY

[9] = molecular target: T1, Vitamin D3 receptor (Homo sapiens); assay: Antagonist activity at recombinant human pFA-CMV fused VDR LBD transfected in HEK293T cells assessed as calcitrol-induced VDR activation at 1 uM incubated for 12 to 14 hrs by dual glo luciferase reporter gene assay; type: cell-based

Row | Activity [1] | Activity [2] | AUC(0-t) at 4 h [3] | Activity [4] | Tmax [5] | Activity [6] | concentration at 4 h [7] | IC50 [8] | Activity [9] | Structure (SMILES)
1 | inactive | inactive | 598 ng·h/mL | inactive | 1 h | inactive | 59 nM | 6.4 µM | inactive | CCC/C(=C\c1cc(OCc2ccc3nc(C(F)(F)F)cc(OC)c3c2)ccc1OCCN1CCN(C)CC1)C(=O)O
2 | inactive | inactive | 650 ng·h/mL | inactive | 1 h | inactive | 115 nM |  | inactive | CCC/C(=C\c1cc(OCc2ccc3nc(C(F)(F)F)cc(OC)c3c2)ccc1OCC1CCN(C)CC1)C(=O)O
